Experimental data reported in patent publication US11999727B2 (Tango Therapeutics, Inc., priority 2020, dated 2024).

How the values were obtained:
PRMT5 [1] = biological target: T1, PRMT5 (Homo sapiens, UniProt O14744); assay: PRMT5 biochemical IC50 assay with no cofactor; conditions: PRMT5, no cofactor
T1 construct: purchased Viva (custom protein)
From the text: Table 1 indicates IC50 values (μM) against PRMT5 for exemplary compounds in the presence of SAM as cofactor, with no cofactor, and with MTA as cofactor, respectively (columns 4-6). […] Ki values can be calculated from the IC50 values as described in the Examples section. As detailed in the Examples section, for the assay performed in the presence of SAM, IC50=Ki×1.5 (Ki=IC50/1.5).

PRMT5 [2] = biological target: T1, PRMT5; assay: PRMT5 biochemical IC50 assay with SAM as cofactor; conditions: PRMT5, SAM as cofactor; read-out: SAM IC50
[3] = system: HAP1 MTAP-intact cell line; assay: SDMA in-cell western assay, HAP1 MTAP-intact; type: cell-based; conditions: Homo sapiens, HAP1, SDMA in-cell western, HAP1 MTAP-intact; read-out: MTAP HAP1 intact IC50
Method in brief: (§1)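 Compounds were tested in HAP1 cells differing only in MTAP status (endogenous expression versus null). Cellular SDMA levels were then measured by in-cell western, giving an IC50 in each background.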

[4] = system: HAP1 MTAP-deleted cell line; assay: SDMA in-cell western assay, HAP1 MTAP-deleted; type: cell-based; conditions: for IC50: Homo sapiens, HAP1, SDMA in-cell western, HAP1 MTAP-deleted; for MTAP intact/deleted ratio: IC50 ratio HAP1 MTAP-intact / HAP1 MTAP-deleted, SDMA in-cell western
Method in brief: as §1

[5] = system: HAP1 MTAP-deleted cell line; assay: Viability assay, MTAP-deleted cell line; type: cell-based; conditions: Homo sapiens, HAP1, viability assay, MTAP-deleted cell line; read-out: HAP1 MTAP deleted viability
From the text: Table 1 additionally indicates IC50 values in a viability assay for the MTAP-deleted cell line (column 10), indicating the effect of treatment with compound on cell survival.

PRMT5 [6] = biological target: T1, PRMT5; assay: PRMT5 biochemical IC50 assay with MTA as cofactor; conditions: PRMT5, MTA as cofactor; read-out: MTA IC50
[7] = read-out: No Cofactor/ rel IC50
[8] = read-out: HAP 1 MTAP deleted IC50
[9] = read-out: HAP1 MTAP deleted IC50

T1 sequence (O14744 whole entry): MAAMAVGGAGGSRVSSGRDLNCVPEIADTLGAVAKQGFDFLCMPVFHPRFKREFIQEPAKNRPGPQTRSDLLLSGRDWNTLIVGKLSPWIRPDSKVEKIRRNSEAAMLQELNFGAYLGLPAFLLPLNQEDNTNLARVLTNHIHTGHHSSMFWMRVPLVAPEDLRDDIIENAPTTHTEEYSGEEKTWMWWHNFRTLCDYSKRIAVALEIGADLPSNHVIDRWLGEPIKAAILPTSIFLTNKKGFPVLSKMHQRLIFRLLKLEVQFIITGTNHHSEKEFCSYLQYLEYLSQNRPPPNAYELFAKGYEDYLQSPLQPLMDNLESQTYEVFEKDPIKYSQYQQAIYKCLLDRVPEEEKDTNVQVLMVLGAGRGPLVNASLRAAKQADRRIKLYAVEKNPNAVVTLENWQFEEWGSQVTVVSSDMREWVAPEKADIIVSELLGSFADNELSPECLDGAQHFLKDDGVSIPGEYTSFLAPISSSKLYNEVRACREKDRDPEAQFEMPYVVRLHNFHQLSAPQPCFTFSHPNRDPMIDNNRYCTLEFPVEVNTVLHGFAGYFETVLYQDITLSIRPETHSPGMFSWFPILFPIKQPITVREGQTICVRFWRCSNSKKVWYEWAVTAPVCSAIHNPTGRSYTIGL
T1 sequence (Q9BQA1 whole entry partner): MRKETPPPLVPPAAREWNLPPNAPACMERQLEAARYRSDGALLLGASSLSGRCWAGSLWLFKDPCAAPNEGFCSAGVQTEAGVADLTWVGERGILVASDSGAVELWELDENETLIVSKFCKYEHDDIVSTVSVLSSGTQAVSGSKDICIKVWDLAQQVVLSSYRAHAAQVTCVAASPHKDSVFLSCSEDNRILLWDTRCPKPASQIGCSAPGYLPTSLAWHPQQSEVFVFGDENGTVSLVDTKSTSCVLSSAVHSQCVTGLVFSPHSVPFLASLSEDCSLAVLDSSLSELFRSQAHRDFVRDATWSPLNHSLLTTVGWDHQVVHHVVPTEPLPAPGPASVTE

Structure (SMILES)	IC50 (PRMT5 [1]; [7])	IC50 (PRMT5 [2])	IC50 [3]	IC50 [4, 8]	MTAP intact/deleted ratio [4]	IC50 [5]	IC50 (PRMT5 [6])	IC50 (PRMT5 [1]; read-out: No Cofactor/rel IC50)	IC50 [4, 9]
Cc1ccc2cc([C@@H]3CC[C@@H](C)CN3C(=O)C(=O)Nc3cncc(C(N)=O)c3)ccc2n1 (racemic) [Compound 167, rac-5-{2-[(2R,5S)-5-Methyl-2-(2-methylquinolin-6-yl)piperidin-1-yl]-2-oxoacetamido}pyridine-3-carboxamide]	50 to 500 nM	50 to 500 nM	> 1000 nM	100 to 1000 nM	A (an IC50 ratio greater than or equal to 10 fold)	1000 to 10000 nM	< 50 nM		
Cc1cc(NC(=O)C(=O)N2C[C@H](C)CC[C@@H]2C)cnc1N (racemic) [Compound 168, N-(6-amino-5-methyl-3-pyridyl)-2-[(2S,5R)-2,5-dimethyl-1-piperidyl]-2-oxo-acetamide]	50 to 500 nM	50 to 500 nM	> 1000 nM	> 1000 nM	C (an IC50 ratio of less than 3 fold)	> 10000 nM	50 to 500 nM		
Cc1cc([C@@H]2CC[C@@H](C)CN2C(=O)C(=O)Nc2cncc(C(N)=O)c2)ccc1OC1CCOC1 (mixture of isomers) [Compound 171, rac-5-{2-[(2R,5S)-5-Methyl-2-[3-methyl-4-(oxolan-3-yloxy)phenyl]piperidin-1-yl]-2-oxoacetamido}pyridine-3-carboxamide]	50 to 500 nM	50 to 500 nM	> 1000 nM	< 100 nM	A (an IC50 ratio greater than or equal to 10 fold)	1000 to 10000 nM	< 50 nM		
C[C@@H]1CC[C@@H](C2CCCC2)N(C(=O)C(=O)Nc2cncc(C(N)=O)c2)C1 (racemic) [Compound 172, 5-(2-(2-cyclopentyl-5-methylpiperidin-1-yl)-2-oxoacetamido)nicotinamide]	50 to 500 nM	50 to 500 nM	> 1000 nM	100 to 1000 nM	A (an IC50 ratio greater than or equal to 10 fold)	> 10000 nM	< 50 nM		
Cc1cc([C@@H]2CC[C@@H](C)CN2C(=O)C(=O)Nc2cncc(C(N)=O)c2)ccc1Cl (racemic) [Compound 173, rac-5-{2-[(2R,5S)-2-(4-Chloro-3-methylphenyl)-5-methylpiperidin-1-yl]-2-oxoacetamido}pyridine-3-carboxamide]	50 to 500 nM	50 to 500 nM	> 1000 nM	< 100 nM	A (an IC50 ratio greater than or equal to 10 fold)	1000 to 10000 nM	< 50 nM		
C[C@@H]1CC[C@@H](c2cccc(Cl)c2)N(C(=O)C(=O)Nc2cncc(C(N)=O)c2)C1 (racemic) [Compound 174, rac-5-{2-[(2R,5S)-2-(3-Chlorophenyl)-5-methylpiperidin-1-yl]-2-oxoacetamido}pyridine-3-carboxamide]		50 to 500 nM	> 1000 nM		A (an IC50 ratio greater than or equal to 10 fold)	1000 to 10000 nM	< 50 nM	50 to 500 nM	< 100 nM
Cc1cc(NC(=O)C(=O)N2C[C@H](C)CC[C@@H]2C2CCCCC2)cnc1N (racemic) [Compound 175, N-(6-amino-5-methyl-3-pyridyl)-2-[(2R,5R)-2-cyclohexyl-5-methyl-1-piperidyl]-2-oxo-acetamide]		> 500 nM	> 1000 nM		B (an IC50 ratio greater than or equal to 3 fold but lower than 10 fold)	> 10000 nM	50 to 500 nM	> 500 nM	> 1000 nM
CC(C)[C@@H]1CC[C@@H](C)CN1C(=O)C(=O)Nc1cncc(C(N)=O)c1 (racemic) [Compound 176, 5-[[2-[(2S,5R)-2-isopropyl-5-methyl-1-piperidyl]-2-oxo-acetyl]amino]pyridine-3-carboxamide]		50 to 500 nM	> 1000 nM		A (an IC50 ratio greater than or equal to 10 fold)	> 10000 nM	< 50 nM	50 to 500 nM	100 to 1000 nM
